# Assay results published in the supplement of paper PMC8960247.
# Counter-ions that a name gives are not always drawn. ± gives the standard error.
# Key:
# UMB1949 (TSC2-deficient) = assay: relative viability vs DMSO (fraction); higher = less cytotoxic; conditions: serum: 0.1% FBS, 72 h;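 also: renal angiomyolipoma cell lines screened in 384-well plates, viability normalized per plate to DMSO-treated cells, each plate carrying 50 nM rapamycin and 1 µM staurosporine controls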
# 621-102 (TSC2-deficient) [1] = assay: as above; conditions: serum: 0.1% FBS, 72 h
# 621-102 (TSC2-deficient) [2] = assay: relative viability vs DMSO; higher = less cytotoxic; conditions: serum: 10% FBS, 72 h
# 621-103 (TSC2-rescued) = assay: as above; conditions: serum: 10% FBS, 72 h
SMILES,relative viability (UMB1949 (TSC2-deficient); 0.0128 nM),relative viability (UMB1949 (TSC2-deficient); 0.064 nM),relative viability (UMB1949 (TSC2-deficient); 0.32 nM),relative viability (UMB1949 (TSC2-deficient); 1.6 nM),relative viability (UMB1949 (TSC2-deficient); 8 nM),relative viability (UMB1949 (TSC2-deficient); 40 nM),relative viability (UMB1949 (TSC2-deficient); 200 nM),relative viability (UMB1949 (TSC2-deficient); 1000 nM),relative viability (UMB1949 (TSC2-deficient); 5000 nM),relative viability (621-102 (TSC2-deficient) [1]; 0.0128 nM),relative viability (621-102 (TSC2-deficient) [1]; 0.064 nM),relative viability (621-102 (TSC2-deficient) [1]; 0.32 nM),relative viability (621-102 (TSC2-deficient) [1]; 1.6 nM),relative viability (621-102 (TSC2-deficient) [1]; 8 nM),relative viability (621-102 (TSC2-deficient) [1]; 40 nM),relative viability (621-102 (TSC2-deficient) [1]; 200 nM),relative viability (621-102 (TSC2-deficient) [1]; 1000 nM),relative viability (621-102 (TSC2-deficient) [1]; 5000 nM),relative viability (621-102 (TSC2-deficient) [2]; 0.0001 µM) [%],relative viability (621-102 (TSC2-deficient) [2]; 0.001 µM) [%],relative viability (621-102 (TSC2-deficient) [2]; 0.01 µM) [%],relative viability (621-102 (TSC2-deficient) [2]; 0.1 µM) [%],relative viability (621-102 (TSC2-deficient) [2]; 1 µM) [%],relative viability (621-102 (TSC2-deficient) [2]; 10 µM) [%],relative viability (621-103 (TSC2-rescued); 0.0001 µM) [%],relative viability (621-103 (TSC2-rescued); 0.001 µM) [%],relative viability (621-103 (TSC2-rescued); 0.01 µM) [%],relative viability (621-103 (TSC2-rescued); 0.1 µM) [%],relative viability (621-103 (TSC2-rescued); 1 µM) [%],relative viability (621-103 (TSC2-rescued); 10 µM) [%]
Cc1ccc([N+](=O)[O-])cc1S(=O)(=O)N(C)/N=C/c1cnc2ccc(Br)cn12 [PIK-75 Hydrochloride],0.512,0.42,0.371,0.417,0.126,0.00679,0.00475,0.00356,0.00221,,,,,,,,,,,,,,,,,,,,,
CN(C)C1CCN(C(=O)c2ccc(NC(=O)Nc3ccc(-c4nc(N5CCOCC5)nc(N5CCOCC5)n4)cc3)cc2)CC1 [PKI587],,,,,,,,,,0.515,0.487,0.471,0.338,0.266,0.196,0.128,0.0333,0.0113,,,,,,,,,,,,
CCS(=O)(=O)c1cccc(-c2cc(C(=O)NC3CCN(C)CC3)c(C)c3[nH]c4ncc(C)cc4c23)c1 [TAK-901],0.561,0.0956,0.0821,0.0562,0.0574,0.0411,0.00479,0.00175,0.0045,,,,,,,,,,94.4 ± 2,98.3 ± 4.1,90 ± 2.7,75.451 ± 0.045,45.4 ± 2,7.72 ± 0.56,108 ± 2.1,97 ± 2,81.4 ± 1.8,72.5 ± 1.6,28.2 ± 2.3,5.6 ± 0.7
CC[C@]12C=CCN3CC[C@@]4(c5cc([C@@]6(C(=O)OC)C[C@@H]7C[C@@H](C(C)(F)F)CN(Cc8c6[nH]c6ccccc86)C7)c(OC)cc5N(C)[C@H]4[C@@](O)(C(=O)OC)[C@@H]1OC(C)=O)[C@@H]32 [Vinflunine Tartrate],,,,,,,,,,,,,,,,,,,91.28 ± 0.35,96.3 ± 1.4,64.68 ± 0.39,44.8 ± 3.1,32 ± 1.2,28.9 ± 0.74,99.3 ± 1.7,93 ± 2.6,66.9 ± 1.8,34.9 ± 1.6,29.8 ± 0.55,23.6 ± 0.65
CCC1=C[C@@H]2CN(C1)Cc1c([nH]c3ccccc13)[C@@](C(=O)OC)(c1cc3c(cc1OC)N(C)[C@H]1[C@@](O)(C(=O)OC)[C@H](OC(C)=O)[C@]4(CC)C=CCN5CC[C@@]31[C@H]54)C2 [Vinorelbine(Navelbine)],,,,,,,,,,,,,,,,,,,51.2 ± 1.2,41.4 ± 1.7,44.2 ± 2.1,38.08 ± 0.27,36.28 ± 0.14,27.51 ± 0.032,50.3 ± 2.2,37.9 ± 1.1,39 ± 0.6,31.2 ± 0.92,29.86 ± 0.072,24.6 ± 0.88
O=C(CCCCCCC(=O)Nc1ccccc1)NO [Vorinostat],,,,,,,,,,,,,,,,,,,117 ± 3.2,120 ± 2.4,114 ± 2.5,106 ± 1.3,91.54 ± 0.85,63.7 ± 1.4,101 ± 2.2,98.74 ± 0.07,98.14 ± 0.97,97.94 ± 0.86,97.19 ± 0.86,26.6 ± 0.47
COC(=O)Nc1ccc(-c2nc(N3CCOCC3)c3cnn(C4CCN(C(=O)OC)CC4)c3n2)cc1 [WYE-354],,,,,,,,,,,,,,,,,,,89.9 ± 1.9,84.2 ± 1.1,79.5 ± 4.5,84.3 ± 5.7,49.3 ± 3.1,61.2 ± 3.3,102 ± 1.1,103.2 ± 0.11,102 ± 1.2,105.7 ± 1,68.1 ± 0.21,74.5 ± 2.2
COC(=O)Nc1ccc(-c2nc(N3CCOCC3)c3cnn(C4CCN(Cc5cccnc5)CC4)c3n2)cc1 [WYE-687],,,,,,,,,,,,,,,,,,,97.311 ± 0.046,102 ± 3,99.7 ± 1.4,100 ± 2.7,59.1 ± 2.8,16.2 ± 0.8,113 ± 3.9,115.4 ± 1.1,113 ± 1.5,104 ± 2.3,55.5 ± 0.9,23.1 ± 0.089
